In patent publication US5183819A, “Use of fused bicyclic imides in the treatment of various CNS disorders” (American Home Products Corporation, priority 1992, dated 1993):

Tests used:
[1] = test system: male Wistar rats; experiment: Ethanol consumption, free choice between water and 5% aqueous ethanol; conditions: zalospirone 40 mg/kg, fluoxetine 10 mg/kg intraperitoneal; for ethanol consumed compared to control (Ringer's solution): treatment periods, g/kg or ml/rat basis
Method: A 12 hour light/dark cycle was programmed with darkness commencing at 1900 hr. […] The drinking tube positions were switched daily. The ethanol concentration was increased by 1% every 3 days until a concentration of 5% was reached. All rats were weighed daily and water or aqueous ethanol intake recorded.
After 3 days at the 5% ethanol concentration the rats that had consumed the 5% ethanol consistently began baseline and the inconsistent or poor drinkers were dropped from the study. A total of 30 rats began baseline studies. Baseline consisted of 8 days of free choice between water and 5% aqueous ethanol. During this time each rat received intraperitoneal injections of Ringer's solution (NaCl, 0.86 g; KCl, 0.03 g; and CaCl2.2H2 O, 0.033 g diluted to 100 ml with distilled water). Weight and water or 5% aqueous ethanol consumption were determined daily at 0800 hr and 1800 hr.

[2] = test system: isolation-induced aggressive mice; conditions: White et al. 1991; cited from earlier work
[3] = test system: mice; conditions: White et al. 1991; cited from earlier work
[4] = test system: rats; conditions: intravenous or subcutaneous administration; cited from earlier work
[5] = test system: monkeys with a preference for alcohol; conditions: cited from earlier work

SMILES	ethanol consumed compared to control (Ringer's solution) [1]	total fluid intake vs control animals [1]	water consumption, treated vs. control rats [1]	aggression in isolation-induced aggressive mice [2]	paradoxical sleep [4]	slow wave sleep [4]	wakefulness [4]	other results
O=C1C2C3C=CC(C4C=CC43)C2C(=O)N1CCCCN1CCN(c2ncccn2)CC1 (centres unmarked) [zalospirone, 3a,4,4a,6a,7a-hexahydro-2-[4-[4-(2-pyrimidinyl)-1-piperazinyl]butyl]-4,7-ethano-1H-cyclobut[f]isoindole-1,3(2H)-dione]	significantly less ethanol	less than with the control animals	no significant differences	reduce aggression				debilitating (sedating) effects at the antiaggressive dose [3]: without the debilitating (sedating) effects
CNCCC(Oc1ccc(C(F)(F)F)cc1)c1ccccc1 (centres unmarked) [fluoxetine]	significantly less ethanol	less than with the control animals	no significant differences					food consumption compared to control rats [1]: decreased food consumption; weight gain compared to control rats [1]: significantly less weight gain
CCCN(CCC)C1CCc2cccc(O)c2C1 (centres unmarked) [8-OH-DPAT, 8-hydroxy-2-(di-n-propylamino)tetralin]					reduced	reduced	increased wakefulness	
O=C1CC2(CCCC2)CC(=O)N1CCCCN1CCN(c2ncccn2)CC1 [buspirone]				reduce aggression	reduced	reduced	increased wakefulness	preference for alcohol [5]: lower the preference for alcohol
O=C1c2ccccc2S(=O)(=O)N1CCCCN1CCN(c2ncccn2)CC1 [ipsapirone]				reduce aggression				
CC1(C)CC(=O)N(CCCCN2CCN(c3ncccn3)CC2)C(=O)C1 [gepirone]				reduce aggression				
